Data reported in patent US12637703B2, “Compositions and methods for detection of oxidizable analytes” (President and Fellows of Harvard College, priority 2019, dated 2026).

Key:
[1] = target: T1, horseradish peroxidase (HRP) (Armoracia rusticana, UniProt P00433); assay: Screening of NIR dye library for HRP substrates (hydrogen peroxide-dependent loss of fluorescence); type: biochemical; conditions: for enzymatic oxidation by HRP, positive controls of the library screening: known HRP substrates, homovanillic acid 0.99 mM, HRP 0.10 U/mL, 10 min, Amplex Red 30 min, room temperature; for oxidation by HRP (loss of fluorescence) at different hydrogen peroxide concentrations: NIR dye 2.5 μM, HRP 105 mU/mL, phosphate buffer 50 mM pH 7.5; for oxidation by HRP (loss of fluorescence) at different hydrogen peroxide concentrations / hydrogen peroxide sensing profile (loss in relative fluorescence intensity): 10 min room temperature; for hydrogen peroxide sensing profile (loss in relative fluorescence intensity): different dye concentrations, HRP-containing buffer pH 7.5
T1 construct: purchased Thermo Fisher Scientific A22188
T1 sequence (P00433 31-338): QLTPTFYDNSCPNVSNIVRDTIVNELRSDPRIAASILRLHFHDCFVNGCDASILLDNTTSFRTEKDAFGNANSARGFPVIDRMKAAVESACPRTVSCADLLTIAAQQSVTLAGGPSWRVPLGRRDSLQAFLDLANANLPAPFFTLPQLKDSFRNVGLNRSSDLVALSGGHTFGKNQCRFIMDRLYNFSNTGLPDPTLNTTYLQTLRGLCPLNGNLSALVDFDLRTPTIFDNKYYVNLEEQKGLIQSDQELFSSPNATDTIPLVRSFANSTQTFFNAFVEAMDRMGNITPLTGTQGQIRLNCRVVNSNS
Experimental: FIGS. 2A-2C are related to screening of near-infrared (NIR) dye library for HRP substrates. NIR dye concentration: 2.5 μM; HRP concentration: 105 mU/mL; buffer composition: phosphate buffer 50 mM at pH 7.5; 10 min incubation time at room temperature. All results as means+SD (n=3).
FIG. 2E is a graph showing the relative fluorescence intensity of a homovanillic acid-containing solution in the presence of hydrogen peroxide and HRP, therefore evaluating hydrogen peroxide sensing with homovanillic acid (a known substrate of HRP) and HRP. HRP catalyzes the dimerization of homovanillic acid to a fluorescent product in the presence of hydrogen peroxide. HRP concentration: 0.10 U/mL; homovanillic acid: 0.99 mM; λex 312 nm; λem 430 nm; incubation time 10 min at room temperature. All results as mean±SD (n=3).
FIG. 2F is a graph showing the relative fluorescence intensity of an Amplex Red®-containing solution in the presence of hydrogen peroxide and HRP, therefore evaluating hydrogen peroxide sensing with Amplex Red® (a known substrate of HRP) and HRP. HRP catalyzes the oxidation of Amplex Red® to the fluorescent product resorufin in the presence of hydrogen peroxide. Excitation/emission wavelengths: λex 530 nm; λem 590 nm; incubation time 30 min at room temperature. Assay conducted in accordance to manufacturer's instructions. All results as mean±SD (n=3).
FIGS. 3B-3E are related to hydrogen peroxide sensing using HRP-mediated S7 oxidation. NIR dye concentration unless stated: 10 μM (FIG. 3C), 7.5 μM (FIG. 3D); HRP concentration: 105 mU/mL (FIG. 3B); buffer composition: phosphate buffer 50 mM at pH 7.5; 10 (FIGS. 3B, 3D) or 30 min (FIG. 3E) incubation time at room temperature. […] All results as means+SD (n=3).
(§1) NIR dyes were dissolved in water (sulfo-cyanine dyes, Lumiprobe, Hannover, Germany, and all investigated IRDyes except for IRDye 800RS, LI-COR Biosciences, Lincoln, NE) or dimethyl sulfoxide (Sigma Aldrich, St. Louis, MO; cyanine dyes, Lumiprobe, and IRDye 80016, LI-COR Biosciences). 10 μL of dye solution (final 2.5 μM) were added to 100 uL of HRP solution (final 105 mU/mL) and hydrogen peroxide standards (both from Amplex™ Red Hydrogen Peroxide/Peroxidase Assay Kit A22188, Thermo Fisher Scientific, Waltham, MA) in sodium chloride-containing phosphate buffer (Sigma Aldrich) 50 mM at pH 7.5 at 300 mOsmol/kg and protected from light. After 10 min at room temperature, the fluorescence intensity was determined by a plate reader (BioTek NEO2, BioTek, Winooski, VT) at the fluorescence excitation and emission wavelength provided by the manufacturer.
To determine the absorbance spectra of S7, 10 μL of dye solution (final 7.5 μM) were added to 100 μL of HRP solution (final 105 mU/mL) and hydrogen peroxide standards in isotonic phosphate buffer 50 mM at pH 7.5. After 15 min, the absorbance spectra were recorded by a plate reader (BioTek NEO2).

[2] = Superoxide testing (SOTS-1 as superoxide radical source); type: physicochemical; conditions: 100-fold excess of superoxide radical (SOTS-1); 30 min room temperature; pH 7.5
Experimental: FIG. 3E is a graph showing the relative fluorescence intensity of several NIR dyes and the superoxide-sensitive dye DHE (positive control) at different concentrations of the superoxide radical source SOTS-1 (E).
Superoxide was generated in accordance with the literature. In brief, SOTS-1 (Cayman Chemicals, Ann Arbor, MI) was dissolved in dimethylformamide (Sigma Aldrich) and added to a near-infrared fluorescent dye-containing ([…]; DHE concentration 10 μM) isotonic phosphate buffer 50 mM at pH 7.5 ([…]) and protected from light. After 30 min at room temperature, the fluorescence intensity was determined by a plate reader (BioTek NEO2) at the fluorescence excitation and emission wavelength provided by the manufacturer.

[3] = Fluorescence of dyes with hydrogen peroxide in HRP-free buffer; type: physicochemical; conditions: 400-fold molar excess of hydrogen peroxide
Experimental: as §1, with “([…]” for “(final 2.5 μM) were added to 100 uL of HRP solution (final 105 mU/mL) and hydrogen peroxide standards (both from Amplex™ Red Hydrogen”

Compound	enzymatic oxidation by HRP, positive controls of the library screening [1]	fluorescence emission in the presence of superoxide radical [2]	oxidation by HRP (loss of fluorescence) at different hydrogen peroxide concentrations [1]	hydrogen peroxide sensing profile (loss in relative fluorescence intensity) [1]	fluorescence properties upon exposure to hydrogen peroxide without HRP [3]
COc1cc(CC(=O)O)ccc1O [homovanillic acid]	enzymatically oxidized in a hydrogen peroxide-dependent manner	–	–	–	–
sulfo-cyanine 7 [S7]	–	preserved their fluorescence emission	oxidized by HRP in a hydrogen peroxide concentration-dependent manner	followed a sigmoid curve	preserved their fluorescence properties
CC1(C)C(/C=C/C=C/C=C/C=C2\N(CCCCS(=O)(=O)O)c3ccc4ccccc4c3C2(C)C)=[N+](CCCCS(=O)(=O)[O-])c2ccc3ccccc3c21 [ICG, indocyanine green]	–	–	oxidized by HRP in a hydrogen peroxide concentration-dependent manner	linear hydrogen peroxide sensing profile	preserved their fluorescence properties
CC(=O)N1c2ccc(O)cc2Oc2cc(O)ccc21 [Amplex Red®]	enzymatically oxidized in a hydrogen peroxide-dependent manner	–	–	–	–
CN1/C(=C/C=C/C=C/C2=[N+](CCCCCC(=O)O)c3ccc(S(=O)(=O)O)cc3C2(C)C)C(C)(C)c2cc(S(=O)(=O)O)ccc21 [sulfo-cyanine 5]	–	preserved their fluorescence emission	–	–	–
